What is called Ki is a dissociation constant, usually derived from enzyme kinetics or from competition with a known ligand. Low readings indicate higher affinity, high ones lower affinity.

Where only a bound is given, the exact number is not on record here.

The text below walks through data of ChEMBL document CHEMBL1137194, “Possible differences in modes of agonist and antagonist binding at human 5-HT6 receptors” (Bioorg Med Chem Lett, 2004).

In the assay the target is 5-hydroxytryptamine receptor 6 (Homo sapiens, UniProt P50406). Nature of the assay: Binding affinity against 5-hydroxytryptamine 6 receptor.
5-hydroxytryptamine receptor 6, sequence (P50406 whole entry): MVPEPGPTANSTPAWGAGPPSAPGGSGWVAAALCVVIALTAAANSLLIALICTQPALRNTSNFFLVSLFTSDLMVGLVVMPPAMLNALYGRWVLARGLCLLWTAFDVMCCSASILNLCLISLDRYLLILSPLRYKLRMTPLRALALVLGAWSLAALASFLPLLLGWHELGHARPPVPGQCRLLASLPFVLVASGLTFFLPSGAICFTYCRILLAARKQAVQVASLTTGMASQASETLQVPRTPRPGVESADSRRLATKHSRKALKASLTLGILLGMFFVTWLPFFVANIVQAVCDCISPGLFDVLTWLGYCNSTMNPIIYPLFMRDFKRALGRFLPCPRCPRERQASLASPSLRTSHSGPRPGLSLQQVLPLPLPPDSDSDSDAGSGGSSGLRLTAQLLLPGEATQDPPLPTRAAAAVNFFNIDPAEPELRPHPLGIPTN
Molecule `CN(C)CCC1=CC(Cc2ccccc2)c2ccccc21` (centres undefined) yielded an inhibition constant (Ki) of 3 nM.
Next, `CN(C)CCN1CCc2ccccc21`: more than 5000 nM; `COc1ccc2c(c1)c(CCN(C)C)cn2S(=O)(=O)c1ccccc1`: 2 nM; `CN(C)CC[N+]1=CCc2ccccc21`: 1900 nM.
Then `CCCc1c(CCN(C)C)c2cc(OC)ccc2n1S(=O)(=O)c1ccccc1`, with 2.3 nM; and `COc1ccc2c(c1)c(CCN(C)C)cn2S(=O)(=O)c1ccc(N)cc1`, with 0.6 nM.
Turning to `CN(C)CCc1cn(Cc2ccccc2)c2ccccc12`, the inhibitory constant (Ki) worked out at 6 nM.
Next, `CN(C)CCn1ccc2ccccc21`: more than 5000 nM; `CCN(CC)CCc1cn(S(=O)(=O)c2ccccc2)c2ccc(OC)cc12`: 6 nM.
